Results taken from ChEMBL document CHEMBL4340516, “Synthesis and antitumor activity of novel steroidal imidazolium salt derivatives” (Eur J Med Chem, 2019).

Columns and labels:
Assay type in all cases: functional, cell-based
[1] = system: SW480; assay: Antiproliferative activity against human SW480 cells assessed as reduction in cell viability incubated for 48 hrs by MTS assay; settings: SW480, 48 h
[2] = system: SMMC-7721; assay: Antiproliferative activity against human SMMC7721 cells assessed as reduction in cell viability incubated for 48 hrs by MTS assay; settings: SMMC-7721, 48 h
[3] = system: HL-60; assay: Antiproliferative activity against human HL60 cells assessed as reduction in cell viability incubated for 48 hrs by MTS assay; settings: HL-60, 48 h
[4] = system: MCF7; assay: Antiproliferative activity against human MCF7 cells assessed as reduction in cell viability incubated for 48 hrs by MTS assay; settings: MCF7, 48 h
[5] = system: A549; assay: Antiproliferative activity against human A549 cells assessed as reduction in cell viability incubated for 48 hrs by MTS assay; settings: A549, 48 h

`CC(C)CCC[C@@H](C)[C@H]1CC[C@H]2[C@@H]3C[C@H](n4cc[n+](CC(=O)c5cccc(Br)c5)c4)[C@]45C[C@H]4CC[C@]5(C)[C@H]3CC[C@]12C` was tested, and the IC50 [1] was 8.23 µM, the IC50 [2] was 1.22 µM and the IC50 [3] was 1.42 µM. The IC50 [4] was 8.7 µM and the IC50 [5] was 7.84 µM.

`CC(=O)O[C@H]1CC[C@@]2(C)C(=CC[C@H]3[C@@H]4CC[C@H](n5cc[n+](CC(=O)c6cccc(Br)c6)c5)[C@@]4(C)CC[C@@H]32)C1` was tested, and the IC50 [1] was 7.26 µM, the IC50 [2] was 5.47 µM and the IC50 [3] was 4.35 µM. For the same compound, the IC50 [4] was 4.88 µM and the IC50 [5] was 7.2 µM.

`CC(C)CCC[C@@H](C)[C@H]1CC[C@H]2[C@@H]3CC=C4C[C@H](n5cnc6ccccc65)CC[C@]4(C)[C@H]3CC[C@]12C` showed an IC50 [1] greater than 20 µM, an IC50 [2] greater than 20 µM and an IC50 [3] greater than 20 µM. The IC50 [4] was greater than 20 µM and the IC50 [5] was greater than 20 µM.

With `CC(=O)O[C@H]1CC[C@@]2(C)C(=CC[C@H]3[C@@H]4CC[C@H](n5cc[n+](Cc6ccccc6Br)c5)[C@@]4(C)CC[C@@H]32)C1` the IC50 [1] was 6.87 µM, the IC50 [2] was 3.83 µM and the IC50 [3] was 1.48 µM. The IC50 [4] was 4.84 µM and the IC50 [5] was 6.52 µM.

With `CC(C)CCC[C@@H](C)[C@H]1CC[C@H]2[C@@H]3C[C@H](n4cc[n+](CC(=O)c5ccccc5)c4)[C@]45C[C@H]4CC[C@]5(C)[C@H]3CC[C@]12C` the IC50 [1] was 6.06 µM, the IC50 [2] was 1.29 µM and the IC50 [3] was 1.53 µM. The IC50 [4] was 6.98 µM and the IC50 [5] was 7.28 µM.

With `C[C@@H]1CC[C@@]2(OC1)O[C@H]1C[C@H]3[C@@H]4C[C@H](n5cc[n+](CC(=O)c6cccc(Br)c6)c5)[C@]56C[C@H]5CC[C@]6(C)[C@H]4CC[C@]3(C)[C@H]1[C@@H]2C` the IC50 [1] was 6.46 µM, the IC50 [2] was 7.28 µM and the IC50 [3] was 1.28 µM. It also gave an IC50 [4] of 5.21 µM and an IC50 [5] of 7.03 µM.

`Cc1cc2ncn([C@@H]3CC[C@@]4(C)C(=CC[C@H]5[C@@H]6C[C@@H]7O[C@]8(CC[C@@H](C)CO8)[C@@H](C)[C@@H]7[C@@]6(C)CC[C@@H]54)C3)c2cc1C` showed an IC50 [1] greater than 20 µM, an IC50 [2] greater than 20 µM and an IC50 [3] greater than 20 µM. It also gave an IC50 [4] greater than 20 µM and an IC50 [5] greater than 20 µM.

With `Cc1cc2c(cc1C)[n+](Cc1ccccc1Br)cn2[C@@H]1CC[C@@]2(C)C(=CC[C@H]3[C@@H]4CC[C@H]([C@H](C)CCCC(C)C)[C@@]4(C)CC[C@@H]32)C1` the IC50 [1] was 13.2 µM, the IC50 [2] was 1.81 µM and the IC50 [3] was 6.96 µM. The IC50 [4] was 14.2 µM and the IC50 [5] was 8.44 µM.

For `CC(C)CCC[C@@H](C)[C@H]1CC[C@H]2[C@@H]3CC=C4C[C@@H](O)CC[C@]4(C)[C@H]3CC[C@]12C` [CHOLESTEROL], the IC50 [1] was greater than 20 µM, the IC50 [2] was greater than 20 µM and the IC50 [3] was greater than 20 µM. The IC50 [4] was greater than 20 µM and the IC50 [5] was greater than 20 µM.
